System: iPSC-derived cortical neurons
Assay type: cell-based
Details: responders vs non-responders, 10 μM Bupropion

CC(NC(C)(C)C)C(=O)c1cccc(Cl)c1 (stereo not drawn) [Bupropion, 3-Chloro-N-tert-butyl-β-keto-α-methylphenethylamin]
logFC LGI1 expression (p<0.01): 0.9793
logFC LRRC8B expression (p<0.01): 0.4223
logFC MCM4 expression (p<0.01): 0.5295
logFC MCUR1 expression (p<0.01): 0.2421
logFC MDN1 expression (p<0.01): 0.4167
logFC MEIOC expression (p<0.01): 0.7172
logFC MGA expression (p<0.01): 0.3064
logFC MGME1 expression (p<0.01): 0.4368
logFC MZT1 expression (p<0.01): 0.4887
logFC NFKBID expression (p<0.01): 0.4452
logFC NOS2 expression (p<0.01): 1.462
logFC NPY2R expression (p<0.01): 1.653
logFC OSBPL11 expression (p<0.01): 0.3394
logFC PAWR expression (p<0.01): 0.4771
logFC PCGF5 expression (p<0.01): 0.6056
logFC PHF6 expression (p<0.01): 0.4686
logFC POU5F1B expression (p<0.01): 0.9729
logFC PPAT expression (p<0.01): 0.4669
logFC PRKDC expression (p<0.01): 0.3963
logFC PTPN13 expression (p<0.01): 0.5645
logFC RNGTT expression (p<0.01): 0.3114
logFC S100A13 expression (p<0.01): 0.7404
logFC SELENOI expression (p<0.01): 0.336
logFC SFRP4 expression (p<0.01): 1.737
logFC SIGLEC10 expression (p<0.01): 0.8067
logFC SIKE1 expression (p<0.01): 0.3013
logFC SIM1 expression (p<0.01): 2.052
logFC SLC7A11 expression (p<0.01): 0.6075
logFC SLC25A13 expression (p<0.01): 0.3285
logFC SLC25A17 expression (p<0.01): 0.3611
logFC SMG1 expression (p<0.01): 0.2796
logFC SNRNP48 expression (p<0.01): 0.4371
logFC SPIN4 expression (p<0.01): 0.4838
logFC STK38L expression (p<0.01): 0.387
logFC SYCP2L expression (p<0.01): 0.5973
logFC TFAM expression (p<0.01): 0.4583
logFC TIGAR expression (p<0.01): 0.4965
logFC TNFRSF13C expression (p<0.01): 0.5218
logFC TSGA10IP expression (p<0.01): 0.8595
logFC TXNRD1 expression (p<0.01): 0.3112
logFC USP37 expression (p<0.01): 0.2938
logFC WNT8B expression (p<0.01): 1.79
logFC WNT10B expression (p<0.01): 1.077
logFC WWP1 expression (p<0.01): 0.3073
logFC ZBTB24 expression (p<0.01): 0.4021
logFC ZC3H13 expression (p<0.01): 0.2827
logFC ZNF347 expression (p<0.01): 0.3648
logFC ZWILCH expression (p<0.01): 0.4164
logFC ACKR1 (PValue NS): −1.506
logFC ACVR2A (PValue NS): −0.6074
logFC ADGRA1 (PValue NS): −1.373
logFC ADGRG1 (PValue NS): −0.7037
logFC AFAP1 (PValue NS): −0.7585
logFC ANKRD34A (PValue NS): −1.243
logFC APBA1 (PValue NS): −1.797
logFC APC2 (PValue NS): −1.57
logFC APOL6 (PValue NS): −1.252
logFC ARHGAP22 (PValue NS): −2.023
logFC ASIC2 (PValue NS): −1.907
logFC ATL1 (PValue NS): −1.284
logFC ATP8A1 (PValue NS): −1.064
logFC BCL11A (PValue NS): −1.755
logFC BTBD8 (PValue NS): −0.8605
logFC C1QL1 (PValue NS): −1.952
logFC C11orf87 (PValue NS): −2.65
logFC C11orf95 (PValue NS): −0.652
logFC C14orf132 (PValue NS): −1.198
logFC CACNA1E (PValue NS): −1.888
logFC CALY (PValue NS): −1.348
logFC CARMIL3 (PValue NS): −1.181
logFC CBFA2T3 (PValue NS): −1.14
logFC CDKN2D (PValue NS): −1.375
logFC CEND1 (PValue NS): −1.295
logFC CHD5 (PValue NS): −1.435
logFC CHRNB4 (PValue NS): −1.488
logFC CHRNG (PValue NS): −1.545
logFC CNR1 (PValue NS): −1.187
logFC CNTN2 (PValue NS): −2.494
logFC CRYGD (PValue NS): −3.453
logFC CTIF (PValue NS): −0.9638
logFC DACT3 (PValue NS): −0.903
logFC DCLK1 (PValue NS): −1.159
logFC DISP3 (PValue NS): −1.132
logFC DLGAP3 (PValue NS): −1.159
logFC DLL4 (PValue NS): −2.038
logFC DNAJC6 (PValue NS): −1.057
logFC DNAJC12 (PValue NS): −0.9874
logFC DNM3 (PValue NS): −1.295
logFC DOC2B (PValue NS): −2.034
logFC DOK4 (PValue NS): −0.8299
logFC DPF3 (PValue NS): −1.335
logFC DPP6 (PValue NS): −1.175
logFC DUSP8 (PValue NS): −1.12
logFC DUSP26 (PValue NS): −1.67
logFC ELAVL2 (PValue NS): −0.9184
logFC ELAVL3 (PValue NS): −1.463
logFC ELMOD1 (PValue NS): −1.395
logFC EPHB2 (PValue NS): −1.009
logFC ERC2 (PValue NS): −0.9757
logFC ESRRB (PValue NS): −1.635
logFC ESRRG (PValue NS): −1.003
logFC FAM78B (PValue NS): −1.309
logFC FAM131C (PValue NS): −1.177
logFC FAM155A (PValue NS): −0.6581
logFC FBLL1 (PValue NS): −1.499
logFC FBXL16 (PValue NS): −0.9816
logFC FLRT2 (PValue NS): −0.9821
logFC FRRS1L (PValue NS): −1.313
logFC GALNT15 (PValue NS): −1.592
logFC GDAP1L1 (PValue NS): −1.2
logFC GDI1 (PValue NS): −0.5928
logFC GNAT3 (PValue NS): −1.874
logFC GNAZ (PValue NS): −0.8379
logFC GNG2 (PValue NS): −1.148
logFC GPR12 (PValue NS): −2.094
logFC GPR83 (PValue NS): −1.576
logFC GPRASP1 (PValue NS): −0.7562
logFC GPRIN3 (PValue NS): −1.516
logFC GRIN2B (PValue NS): −2.921
logFC GRIN3A (PValue NS): −2.57
logFC GRM6 (PValue NS): −1.37
logFC GRM7 (PValue NS): −1.699
logFC GSE1 (PValue NS): −0.6973
logFC GSTM3 (PValue NS): −1.177
logFC HIVEP3 (PValue NS): −1.261
logFC HPCAL4 (PValue NS): −1.489
logFC INSYN1 (PValue NS): −1.208
logFC INSYN2A (PValue NS): −1.914
logFC IQSEC3 (PValue NS): −1.513
logFC JAKMIP3 (PValue NS): −0.927
logFC KIDINS220 (PValue NS): −0.8542
logFC KIF1A (PValue NS): −1.165
logFC KIF21B (PValue NS): −1.336
logFC KLF7 (PValue NS): −0.8775
logFC L1CAM (PValue NS): −1.21
logFC LANCL2 (PValue NS): −0.7582
logFC LBH (PValue NS): −0.8003
logFC MACO1 (PValue NS): −0.6324
logFC MADD (PValue NS): −0.7392
logFC MAGEE1 (PValue NS): −0.8404
logFC MANEAL (PValue NS): −1.302
logFC MAOA (PValue NS): −1.531
logFC MAP3K10 (PValue NS): −0.7965
logFC MAPK8IP1 (PValue NS): −1.32
logFC MAPT (PValue NS): −1.894
logFC MCF2L (PValue NS): −1.13
logFC MDGA1 (PValue NS): −1.126
logFC MLLT11 (PValue NS): −1.039
logFC MSANTD1 (PValue NS): −1.341
logFC MTMR4 (PValue NS): −0.6785
logFC MVB12B (PValue NS): −1.106
logFC MYH3 (PValue NS): −3.064
logFC MYH6 (PValue NS): −3.72
logFC MYT1 (PValue NS): −1.297
logFC MYT1L (PValue NS): −2.032
logFC NAPB (PValue NS): −1.05
logFC NCAN (PValue NS): −1.327
logFC NCS1 (PValue NS): −1.056
logFC NDP (PValue NS): −2.196
logFC NEFL (PValue NS): −0.8556
logFC NKAIN2 (PValue NS): −1.212
logFC NOL4L (PValue NS): −0.7376
logFC NRN1 (PValue NS): −0.9586
logFC NRXN2 (PValue NS): −1.352
logFC NTRK1 (PValue NS): −1.53
logFC NTS (PValue NS): −1.335
logFC NXPH1 (PValue NS): −2.191
logFC OLFM1 (PValue NS): −1.154
logFC OSBP2 (PValue NS): −1.125
logFC PCDHA5 (PValue NS): −1.076
logFC PCDHA7 (PValue NS): −1.111
logFC PCDHB13 (PValue NS): −1.168
logFC PCDHB15 (PValue NS): −1.085
logFC PCDHGA4 (PValue NS): −1.156
logFC PCDHGA6 (PValue NS): −1.871
logFC PCSK2 (PValue NS): −1.936
logFC PEG3 (PValue NS): −3.912
logFC PEX5L (PValue NS): −1.625
logFC PHACTR1 (PValue NS): −1.247
logFC PIP4K2B (PValue NS): −0.6164
logFC PLCL1 (PValue NS): −1.271
logFC PLPPR4 (PValue NS): −2.082
logFC PLPPR5 (PValue NS): −1.467
logFC PLXNA4 (PValue NS): −1.432
logFC PNMA6A (PValue NS): −1.328
logFC PODXL2 (PValue NS): −0.8136
logFC PRKAR1B (PValue NS): −1.374
logFC PTGFR (PValue NS): −2.027
logFC PTPRT (PValue NS): −1.789
logFC QPCT (PValue NS): −1.04
logFC RALYL (PValue NS): −2.285
logFC RGN (PValue NS): −1.436
logFC RIMS3 (PValue NS): −1.119
logFC ROBO2 (PValue NS): −1.394
logFC RPS6KL1 (PValue NS): −1.019
logFC RTN2 (PValue NS): −0.9099
logFC RTN4 (PValue NS): −0.6753
logFC RUNDC3A (PValue NS): −1.678
logFC RUSC2 (PValue NS): −0.9937
logFC SBK1 (PValue NS): −0.9487
logFC SCAMP5 (PValue NS): −0.8113
logFC SCRT1 (PValue NS): −1.427
logFC SEPTIN4 (PValue NS): −1.513
logFC SGIP1 (PValue NS): −1.239
logFC SH3GL2 (PValue NS): −1.666
logFC SHC2 (PValue NS): −0.6933
logFC SHC4 (PValue NS): −2.453
logFC SHISA7 (PValue NS): −1.011
logFC SLC1A4 (PValue NS): −1.383
logFC SLC4A3 (PValue NS): −1.275
logFC SLC6A17 (PValue NS): −2.434
logFC SLC24A3 (PValue NS): −1.458
logFC SLC30A10 (PValue NS): −1.88
logFC SLIT1 (PValue NS): −1.122
logFC SLITRK3 (PValue NS): −2.443
logFC SMIM18 (PValue NS): −1.721
logFC SMIM22 (PValue NS): −1.921
logFC SNAP25 (PValue NS): −1.475
logFC SNN (PValue NS): −0.6591
logFC SOBP (PValue NS): −0.9125
logFC SOGA3 (PValue NS): −1.2
logFC SOX4 (PValue NS): −0.6592
logFC SPOCK2 (PValue NS): −2.032
logFC SPRN (PValue NS): −1.245
logFC SRL (PValue NS): −1.711
logFC STMN3 (PValue NS): −1.145
logFC SYT3 (PValue NS): −1.332
logFC SYT4 (PValue NS): −1.54
logFC SYT5 (PValue NS): −1.94
logFC SYT11 (PValue NS): −0.7686
logFC TACR1 (PValue NS): −1.666
logFC TAFA2 (PValue NS): −1.304
logFC TBC1D30 (PValue NS): −1.541
logFC TCEAL6 (PValue NS): −2.546
logFC TMCC2 (PValue NS): −0.92
logFC TMEM35A (PValue NS): −1.274
logFC TMEM179 (PValue NS): −1.494
logFC TMEM229B (PValue NS): −1.955
logFC TMOD2 (PValue NS): −1.477
logFC TNR (PValue NS): −2.583
logFC TRIM67 (PValue NS): −1.894
logFC UBE2QL1 (PValue NS): −1.575
logFC UNC13A (PValue NS): −0.9018
logFC VAMP2 (PValue NS): −0.7327
logFC VSTM2L (PValue NS): −1.008
logFC VWC2 (PValue NS): −2.201
logFC XKR4 (PValue NS): −1.301
logFC XKR7 (PValue NS): −1.252
logFC ZNF436 (PValue NS): −0.8527
logFC ZNF836 (PValue NS): −0.9494

From US20230094922A1, “METHODS OF THERAPEUTIC PROGNOSTICATION” (GENETIKAPLUS LTD., priority 2020, published 2023)
